Reference: patent US20240105277A1, “DRUG DISCOVERY VIA REI[…] WITH THREE-D[…]” (priority 2022, published 2024)
Where “and” joins values, the source holds several entries; their conditions need not be identical. Equal entries are not always repeated. Where two headings read alike, the source gives them in different places.

What was measured:
[1] = biological target: T1, SARS-CoV-2 M^pro (Severe acute respiratory syndrome coronavirus 2, UniProt P0DTD1); conditions: for fold decrease in IC50, initial vs final inhibition value: t=2 minutes vs 2-hour preincubation
Procedure: To validate the computational leads, the remaining compounds were subjected to a primary SARS-CoV-2 M^pro activity inhibition screen in which they were pre-incubated with the enzyme and the initial velocities of cleavage of a FRET peptide were determined. The Z′-factor of the assay was 0.65, and the distribution of z-scores of compounds and positive (no inhibitor) and negative (no enzyme) controls is shown in FIG. 20.
For each compound, IC50 curves were generated using a continuous fluorescence assay. Reaction volumes of 40 μL were used in Corning half area 96-well plates. […] All the reactions were done in triplicate. For IC50 determination, the initial rate data was used, and the kinetic values were obtained directly from nonlinear regression of substrate-velocity curves in the presence of various concentrations of the inhibitor. The equation Y=(Top-Bottom)/(1+1{circumflex over (0)}(X-log IC50))+Bottom; X=log(concentration) and Y=binding; was used in the nonlinear regression.
(§1) Similar fluorescence assay was used to determine the time dependent IC50 curves. The plate with 10 μL of enzyme (1 μM) and 10 μL of the appropriate inhibitor dilution in 20 mM Tris-HCl, pH 7.35 with 1.25% DMSO was incubated at room temperature on a titer plate shaker with varying enzyme pre-incubation times (2, 15, 30, 45, 60 and 120 min) and centrifuged briefly at 1000 g just before incubation time ends. […] The equation Y=(Top-Bottom)/(1+1{circumflex over (0)}(X-log IC50))+Bottom; X=log(concentration) and Y=binding; was used in the nonlinear regression.

[2] = biological target: T1, SARS-CoV-2 M^pro; conditions: for Ki / kinact (10^−3 s^−1): saturation profile, with SEM
Procedure: as §1

[3] = test system: Vero E6 (CRL-1586) cells; test: Cytotoxicity and cytopathic effect assay; format: cell-based; conditions: concentrations up to 10 μM, with or without PZ
Procedure: The in vitro antiviral activity of all four hits was evaluated in Vero E6 (CRL-1586) cells. The antiviral properties of the inhibitors were assessed in the absence and presence of an efflux pump inhibitor (CP-100356, labeled PZ). […] Because of high cytotoxic effects of these compounds at high doses, the high doses were removed in the EC50 curve fit for these compounds.
Briefly, on the day of infection, 5×10^3 Vero E6 cells were seeded in 20 μL cell culture medium (containing 5% FBS) in 384-well plates, using a MultiFlo FX multi-mode microplate dispenser (BioTek). The same day, compounds were added to the cells (25 μL/well, in EMEM with 5% FBS, 1% P/S), with 2 wells per concentration. After 2 h of compound preincubation, 5 μL of virus was added to the wells using a multi-channel pipette to MOI=0.1. Viruses were diluted in EMEM with 5% FBS, 1% P/S and was kept on ice until cells were ready for infection. Eight virus-only control wells were included as the […]. The virus plus cells and the cells were used to normalize the data set. After 72 h, 30 μL of CellTiter-Glo (Promega) was dispensed into each well by a MultiFlo FX multi-mode microplate dispenser. After a 10 min incubation at room temperature, the plates were loaded into a Perkin EnVision multi-mode microplate reader to read luminescence.

[4] = read-out: IC50 (μM) - 2 min, 2 min co-incubation of enzyme and inhibitor, with standard deviation
[5] = read-out: IC50 (μM) - 120 min, 120 min pre-incubation, with standard deviation

For `O=C(CCl)N1CCN(Cc2cccc3ccccc23)CC1` [Compound A], the IC50 [1, 4] was 16.3 ± 1.3 µM, the IC50 [1, 5] was 0.3 ± 0.03 µM and the “fold decrease in IC50, initial vs final inhibition value” [1] was 54 fold. For the same molecule, the “kinact/KI” value ([2]; inactivation efficiency) was 441 ± 297 M⁻¹ s⁻¹, the Ki [2] was 11.5 µM and the “kinact (10^−3 s^−1)” value [2] was 5.1 ± 0.5 10^−3 s^−1. For the same molecule, the cytotoxic effect [3] was “less than other compounds”.
In the case of `O=C(CCl)N1CCN(Cc2cccc(Cl)c2)CC1` [Compound B], the IC50 [1, 4] is reported as 12.8 ± 5.1 µM, the IC50 [1, 5] is reported as 0.4 ± 0.13 µM and the “fold decrease in IC50, initial vs final inhibition value” [1] is reported as 32 fold. For the same molecule, the “kinact/KI” value ([2]; inactivation efficiency) was 697 ± 697 M⁻¹ s⁻¹, the Ki [2] was 5.97 µM and 6 µM and the “kinact (10^−3 s^−1)” value [2] was 4.2 ± 0.8 10^−3 s^−1.
In the case of `COc1ccc(C2CC(c3ccccc3)=NN2C(=O)CCl)cc1OC` (centres unmarked) [Compound C], the “IC50 fold lower than the IC50s of the other compounds” value ([1]; preliminary analysis, 2 min) is reported as “at least 5 fold”, the IC50 [1, 4] is reported as 2.39 µM and 2.4 µM and the IC50 ([1]; read-out: IC50 after a 2-hour preincubation, 2-hour preincubation) is reported as 0.16 µM. The “fold decrease in IC50, initial vs final inhibition value” [1] was 15 fold, the “kinact/KI fold higher relative to the other compounds” value [2] was “at least 4 fold” and the “kinact/KI (M^−1 s^−1)” value ([2]; inactivation efficiency) was 4,460 M^−1 s^−1. The Ki [2] was 5.27 µM and 5.3 µM and the “kinact (10^−3 s^−1)” value [2] was 23.5 ± 2.6 10^−3 s^−1.
With `CC(C)CC1CN(C(=O)CCl)CCN1Cc1cccc(Cl)c1` (centres unmarked) [D] the IC50 [1, 4] was 16 ± 0.9 µM, the IC50 [1, 5] was 0.41 ± 0.06 µM and the “fold decrease in IC50, initial vs final inhibition value” [1] was 39 fold. For the same molecule, the Ki [2] was ≥ 62.5 µM and the “kinact (10^−3 s^−1)” value [2] was ≥16.6 10^−3 s^−1.
